Assay results: US10065941B2, “Aminotriazine derivative and pharmaceutical composition comprising the same” (Shionogi & Co., Ltd., priority 2013, dated 2018)

Biological target: human P2X3 receptor (Homo sapiens (Human), UniProt P56373)
Experiment: Evaluation of human P2X3 receptor inhibitory activity (Test Example 1)
Type: cell-based
Settings: C6BU-1 cell transfected with human P2X3 receptor gene, FLIPR 384
Summary of the method: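 C6BU-1 cells stably expressing human P2X3, loaded with 4 μM Fluo-3-AM 1 h at 37 °C, preincubated 5 min with test compound, then stimulated with 150 nM ATP solution (stock, pre-dispense) and monitored by FLIPR for 4 min. IC50 derived from maximum fluorescence ratio (post-ATP peak over baseline).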

Sequence of human P2X3 receptor (P56373 whole entry): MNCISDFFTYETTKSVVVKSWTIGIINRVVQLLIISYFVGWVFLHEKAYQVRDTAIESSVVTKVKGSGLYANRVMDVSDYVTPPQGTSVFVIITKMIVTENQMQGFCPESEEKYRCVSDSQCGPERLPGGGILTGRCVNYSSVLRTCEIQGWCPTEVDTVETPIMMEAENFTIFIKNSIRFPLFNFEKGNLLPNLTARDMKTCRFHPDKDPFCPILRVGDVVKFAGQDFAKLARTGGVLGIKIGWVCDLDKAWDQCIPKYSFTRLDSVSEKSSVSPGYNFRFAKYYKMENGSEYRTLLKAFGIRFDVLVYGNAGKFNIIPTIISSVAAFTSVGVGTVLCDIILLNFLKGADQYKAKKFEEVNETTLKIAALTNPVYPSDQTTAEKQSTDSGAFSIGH

Compound	IC50 [nM]
COC(=O)[C@@H](C)Cn1c(=O)[nH]/c(=N\c2ccc(Oc3cnc(C(F)(F)F)cn3)cc2)n(Cc2ccc(Cl)cc2)c1=O [Compound R-035]	8
CC(C)(Cn1c(=O)[nH]/c(=N\c2ccc(OC3CCC3)c(F)c2)n(Cc2ccc(Cl)cc2)c1=O)C(=O)O [Compound R-077]	24
CC1(Cn2c(=O)[nH]/c(=N\c3ccc(Oc4ccccn4)cc3)n(Cc3ccc(Cl)cc3)c2=O)COC(C)(C)OC1 [Compound R-236]	4
COc1nccc(Oc2ccc(/N=c3\[nH]c(=O)n([C@@H](C)[C@@H](C)C(=O)O)c(=O)n3Cc3ccc(Cl)cc3)cc2)n1 [Compound R-010]	10
CC(C)(Cn1c(=O)[nH]/c(=N\c2ccc(Oc3ccccn3)c(F)c2)n(Cc2ccc(Cl)cc2)c1=O)C(=O)O [Compound I-230]	11
COc1cc(Oc2ccc(/N=c3\[nH]c(=O)n(C[C@H](C)C(=O)O)c(=O)n3Cc3ccc(Cl)cc3)cc2)ccn1 [Compound R-032]	4
COC(=O)C(C)(C)Cn1c(=O)[nH]/c(=N\c2ccc(Oc3ccnc(C)n3)cc2)n(Cc2ccc(Cl)cc2)c1=O [Compound R-043]	5
COC(=O)C[C@@H](C)n1c(=O)[nH]/c(=N\c2ccc(Oc3ccc(F)cn3)cc2)n(Cc2ccc(C)cc2)c1=O [Compound I-190]	5
COC(=O)[C@H](Cn1c(=O)[nH]/c(=N\c2ccc(Oc3ccc(F)cn3)cc2)n(Cc2ccc(Cl)cc2)c1=O)OC [Compound I-121]	6
COC(=O)CCn1c(=O)[nH]/c(=N\c2ccc(Oc3ccccn3)c(C)c2)n(Cc2ccc(Cl)cc2)c1=O [Compound R-291]	6
Cc1cc(/N=c2\[nH]c(=O)n([C@@H](C)[C@@H](C)C(=O)O)c(=O)n2Cc2ccc(Cl)cc2)ccc1Oc1cnccn1 [Compound R-161]	10
COC(=O)C(C)(C)Cn1c(=O)[nH]/c(=N\c2ccc(Oc3ccnc(C(=O)O)c3)cc2)n(Cc2ccc(Cl)cc2)c1=O [Compound R-105]	7
CC(C)(Cn1c(=O)[nH]/c(=N\c2ccc(Oc3cccc(Cl)n3)cc2)n(Cc2ccc(Cl)cc2)c1=O)C(=O)O [Compound I-015]	9
C[C@@H](C(=O)O)[C@H](C)n1c(=O)[nH]/c(=N\c2ccc(Oc3ccccn3)cc2)n(Cc2ccc(Cl)cc2)c1=O [Compound I-147]	7
Cc1ccc(Cn2c(=O)n([C@@H](C)[C@@H](C)C(=O)O)c(=O)[nH]/c2=N\c2ccc(Oc3ncccc3F)cc2)cc1 [Compound I-096]	8
O=C(O)C1(Cn2c(=O)[nH]/c(=N\c3ccc(Oc4ccc(F)cn4)cc3)n(Cc3ccc(Cl)cc3)c2=O)COC1 [Compound I-059]	16
COC(=O)[C@@H](C)Cn1c(=O)[nH]/c(=N\c2ccc(Oc3ccccn3)cc2)n(CC2CC3(CCC3)C2)c1=O [Compound I-268]	3
O=C(O)C1(Cn2c(=O)[nH]/c(=N\c3ccc(Oc4cccc(F)n4)cc3)n(Cc3ccc(Cl)cc3)c2=O)COC1 [Compound I-049]	15
CCc1oc2ccc(/N=c3\[nH]c(=O)n(C[C@@H](O)CC(=O)O)c(=O)n3Cc3ccc(Cl)cc3)cc2c1C [Compound R-178]	45
C[C@@H](Cn1c(=O)[nH]/c(=N\c2ccc(Oc3cccnc3)cc2)n(Cc2ccc(Cl)cc2)c1=O)C(=O)O [Compound R-207]	9

Compound	IC50 [nM]
COC(=O)[C@@H](C)Cn1c(=O)[nH]/c(=N\c2ccc(N3CCOCC3)c(F)c2)n(Cc2ccc(Cl)cc2)c1=O [Compound R-106]	379
Cc1nc(Oc2ccc(/N=c3\[nH]c(=O)n(CC(C)(C)C(=O)O)c(=O)n3Cc3ccc(Cl)cc3)cc2)no1 [Compound R-115]	65
COC(=O)[C@@H](C)Cn1c(=O)[nH]/c(=N\c2ccc(Oc3ccccn3)c(F)c2)n(Cc2ccc(C)cc2)c1=O [Compound I-204]	4
C[C@@H](Cn1c(=O)[nH]/c(=N\c2ccc(Oc3cc(C(F)(F)F)ccn3)cc2)n(Cc2ccc(Cl)cc2)c1=O)C(=O)O [Compound I-088]	15
CCOC(=O)C[C@H](O)Cn1c(=O)[nH]/c(=N\c2ccc(Oc3ccc(F)cn3)cc2)n(Cc2ccc(Cl)cc2)c1=O [Compound I-089]	8
COC(=O)C(C)(C)Cn1c(=O)[nH]/c(=N\c2ccc(Oc3ncccc3OC)cc2)n(Cc2ccc(Cl)cc2)c1=O [Compound I-159]	9
C[C@@H](Oc1ccc(/N=c2\[nH]c(=O)n(CC(C)(C)C(=O)O)c(=O)n2Cc2ccc(Cl)cc2)cc1F)C(F)(F)F [Compound R-095]	45
CC(C)(Cn1c(=O)[nH]/c(=N\c2ccc(Oc3cc(Cl)ncn3)cc2)n(Cc2ccc(Cl)cc2)c1=O)C(=O)O [Compound R-092]	10
COC(=O)[C@@H](C)Cn1c(=O)[nH]/c(=N\c2ccc(Oc3ncccn3)cc2)n(Cc2ccc(Cl)cc2)c1=O [Compound R-059]	5
C[C@@H](Cn1c(=O)[nH]/c(=N\c2ccc(Oc3ccc(F)cn3)cc2)n(Cc2ccc(CF)cc2)c1=O)C(=O)O [Compound I-216]	17
C=C(CO)Cn1c(=O)[nH]/c(=N\c2ccc(Oc3ccccn3)cc2)n(Cc2ccc(Cl)cc2)c1=O [Compound R-254, 1-(4-chlorobenzyl)-3-(2-hydroxymethyl-2-propenyl)-6-[4-(2-pyridyloxy)phenylimino]-1,3,5-triazinane-2,4-dione]	3
C[C@@H](Cn1c(=O)[nH]/c(=N\c2ccc(Oc3ccc4nccn4n3)cc2)n(Cc2ccc(Cl)cc2)c1=O)C(=O)O [Compound R-231]	5
COC(=O)[C@H](C)[C@H](C)n1c(=O)[nH]/c(=N\c2ccc(Oc3ncc(C)s3)cc2)n(Cc2ccc(Cl)cc2)c1=O [Compound R-182]	26
COC(=O)C(C)(C)Cn1c(=O)[nH]/c(=N\c2ccc(Oc3ccc(F)cn3)cc2)n(Cc2ccc(Cl)cc2)c1=O [Compound I-003]	7
Cc1cc(/N=c2\[nH]c(=O)n(CC(C)(C)C(=O)O)c(=O)n2Cc2ccc(Cl)cc2)ccc1Oc1ccccn1 [Compound I-219]	12
COc1cc(Oc2ccc(/N=c3\[nH]c(=O)n([C@@H](C)[C@@H](C)C(=O)O)c(=O)n3Cc3ccc(Cl)cc3)cc2)cc(F)n1 [Compound R-177]	5
CCOC(=O)C1(Cn2c(=O)[nH]/c(=N\c3ccc(Oc4ccccn4)cc3)n(Cc3ccc(Cl)cc3)c2=O)CC1 [Compound I-192]	5
COC(=O)[C@@H](C)Cn1c(=O)[nH]/c(=N\c2ccc(N3CCCCC3)c(C)c2)n(Cc2ccc(Cl)cc2)c1=O [Compound R-138]	78
Cc1ccc(Cn2c(=O)n(C[C@@H](C)C(=O)O)c(=O)[nH]/c2=N\c2ccc(Oc3ccccn3)cc2)cc1 [Compound I-148]	9
COC(=O)[C@@H](C)Cn1c(=O)[nH]/c(=N\c2ccc(Oc3cc(C(F)(F)F)ccn3)cc2)n(Cc2ccc(Cl)cc2)c1=O [Compound I-082]	112

Compound	IC50 [nM]
COC(=O)C(C)(C)Cn1c(=O)[nH]/c(=N\c2ccc(Oc3cc(C(F)(F)F)ccn3)cc2)n(Cc2ccc(Cl)cc2)c1=O [Compound I-085]	225
CCOC(=O)[C@H]1C[C@@H](n2c(=O)[nH]/c(=N\c3ccc(Oc4ncccc4F)cc3)n(Cc3ccc(Cl)cc3)c2=O)C1 [Compound I-062]	31
COc1cc(Oc2ccc(/N=c3\[nH]c(=O)n(C[C@H](C)C(=O)O)c(=O)n3Cc3ccc(Cl)cc3)cc2)cc(F)n1 [Compound R-058]	4
CC(C)(Cn1c(=O)[nH]/c(=N\c2ccc(Oc3ncccn3)c(F)c2)n(Cc2ccc(Cl)cc2)c1=O)C(=O)O [Compound R-165]	14
COC(=O)CCn1c(=O)[nH]/c(=N\c2ccc(Oc3cccc(C(C)=O)n3)cc2)n(Cc2ccc(Cl)cc2)c1=O [Compound R-302]	6
C[C@H](Cn1c(=O)[nH]/c(=N\c2ccc(Oc3ccccn3)cc2)n(Cc2ccc(Cl)cc2)c1=O)C(=O)O [Compound I-141]	14
Cc1ccc(Cn2c(=O)n(CC(C)(C)C(=O)O)c(=O)[nH]/c2=N\c2ccc(Oc3ccc(OC(F)F)cn3)cc2)cc1 [Compound I-136]	7
C[C@@H](Cn1c(=O)[nH]/c(=N\c2ccc(Oc3cc(F)ncn3)cc2)n(Cc2ccc(Cl)cc2)c1=O)C(=O)O [Compound R-198]	9
COC(=O)[C@H](C)Cn1c(=O)[nH]/c(=N\c2ccc(Oc3ccccn3)cc2)n(Cc2ccc(C)cc2)c1=O [Compound I-140]	3
C[C@@H](Cn1c(=O)[nH]/c(=N\c2ccc(Oc3cnccn3)cc2)n(Cc2ccc(Cl)cc2)c1=O)C(=O)O [Compound R-019]	6
CC(C)(Cn1c(=O)[nH]/c(=N\c2ccc(Oc3ncccc3C#N)cc2)n(Cc2ccc(Cl)cc2)c1=O)C(=O)O [Compound I-048]	30
CCc1ccc(Oc2ccc(/N=c3\[nH]c(=O)n(C[C@H](C)C(=O)OC)c(=O)n3Cc3ccc(C)cc3)cc2)nc1 [Compound I-270]	4
COCc1cccc(Oc2ccc(/N=c3\[nH]c(=O)n(C[C@H](C)C(=O)OC)c(=O)n3Cc3ccc(Cl)cc3)cc2)n1 [Compound I-249]	36
C[C@@H](Cn1c(=O)[nH]/c(=N\c2ccc(Oc3ccc(CO)cn3)cc2)n(Cc2ccc(Cl)cc2)c1=O)C(=O)O [Compound I-084]	8
COC(=O)[C@H](C)[C@H](C)n1c(=O)[nH]/c(=N\c2ccc(Oc3cnccn3)c(C)c2)n(Cc2ccc(Cl)cc2)c1=O [Compound R-158]	12
COC(=O)[C@@H](C)Cn1c(=O)[nH]/c(=N\c2ccc(Oc3ccnc(C)n3)cc2)n(Cc2ccc(Cl)cc2)c1=O [Compound R-042]	5
COC(=O)C(C)(C)Cn1c(=O)[nH]/c(=N\c2ccc(Oc3ccc(OC(F)F)cn3)cc2)n(Cc2ccc(C)cc2)c1=O [Compound I-133]	8
COC(=O)c1cccc(-c2ccc(Oc3ccc(/N=c4\[nH]c(=O)[nH]c(=O)n4Cc4ccc(Cl)cc4)cc3)nc2)c1 [Compound R-002]	363
COc1ccc(Oc2ccc(/N=c3\[nH]c(=O)n([C@@H](C)[C@@H](C)C(=O)O)c(=O)n3Cc3ccc(Cl)cc3)cc2)nc1 [Compound I-094]	11
